Measurements: US20220378789A1, “METHODS OF ADMINISTERING ELAGOLIX IN ASSOCIATION WITH ARTIFICIAL REPRODUCTIVE TECHNOLOGIES” (priority 2021, published 2022)
Non-standard residues stand in square brackets, D forms with d. Residues, ends and D or L forms follow the SMILES beside them. d(hArg(Et2)) = CCN=C(NCC)NCCCC[C@@H](N)C(=O)O; hArg(Et2) = CCN=C(NCC)NCCCC[C@H](N)C(=O)O; dPhe(4-Cl) = N[C@H](Cc1ccc(Cl)cc1)C(=O)O; d2Nal = N[C@H](Cc1ccc2ccccc2c1)C(=O)O; d3Pal = N[C@H](Cc1cccnc1)C(=O)O

How the values were obtained:
GnRH receptor [1] = target: T1, GnRH receptor (Homo sapiens, UniProt P30968); assay: Cohort study of oocyte donors in an assisted reproductive technology cycle: ovulation suppression during ovarian stimulation; type: in vivo; conditions: for premature ovulation: Elagolix 200 mg PO QHS vs Ganirelix 250 mcg SQ QHS, 75 donors per group; for Avg. Peak Estradiol / Avg. Peak LH / Avg. Peak Progesterone / Days of Stimulation / Avg. Matures Oocytes / Avg. Oocytes / Avg. Cum GN Dose: group mean; for Avg. Matures Oocytes: mature oocytes at retrieval; for Avg. Oocytes: oocytes retrieved; for Avg. Cum GN Dose: total gonadotropins consumed per cycle
T1 construct: from tissue; host or cells: anterior pituitary gland of the oocyte donors (in vivo)
T1 sequence (P30968 1-328): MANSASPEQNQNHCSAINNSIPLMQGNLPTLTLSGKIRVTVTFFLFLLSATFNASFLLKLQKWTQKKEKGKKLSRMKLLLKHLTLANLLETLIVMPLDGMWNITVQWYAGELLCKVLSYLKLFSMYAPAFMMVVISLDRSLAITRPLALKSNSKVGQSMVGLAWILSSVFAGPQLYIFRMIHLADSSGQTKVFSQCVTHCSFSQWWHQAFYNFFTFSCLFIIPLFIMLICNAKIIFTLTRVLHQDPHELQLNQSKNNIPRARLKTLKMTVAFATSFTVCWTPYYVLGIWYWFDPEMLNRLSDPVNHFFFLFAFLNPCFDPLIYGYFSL
Experimental: An example of a method of the present disclosure includes a Western IRB approved (WIRB® Protocol #20191163) cohort study of 75 oocyte donors undergoing an assisted reproductive technology cycle receiving Elagolix 200 mg PO QHS for ovulation suppression compared to 75 historical donors given Ganirelix 250 mcg SQ QHS. Ovarian stimulation involved 10 days of oral contraceptive pretreatment. A recombinant FSH (Gonal F) starting dosage was based on donor age, AMH and BMI. 20 U HCG addback was given throughout the cycle with antagonists administered with a lead follicle of greater than 14 mm. […] Secondary outcomes are the number of mature oocytes at oocyte retrieval, the maximum estradiol level, the total amount of gonadotropins consumed, and the number of injections and patient cost.
The study medication was an orally bioavailable GnRH antagonist marketed by ABBVIE under the brand name ORILISSA® (Elagolix). The 200 mg dose was administered orally with once daily dosing.
A study comprised 75 oocyte donors from whom data for 75 assisted reproductive technology cycles over the course of a two-year period was collected. Upon completion of data collection, a treatment group and an age and weight-matched control group were compared and assessed on the basis of demographic data, health history, ovarian reserve, and information regarding their ovarian stimulation cycles using Pearson χ2 and Student's t-tests. The primary outcome—premature ovulation rate—was evaluated using Chi squared tests. The secondary outcomes—number of mature oocytes, the maximum estradiol level, and the total amount of gonadotropins consumed—were compared using Student's t-tests.
Protocol for Oocyte Donation with Elagolix for Ovulation Suppression 1. Prospective donor accepted into FDA-accredited egg donation program after successful completion of screening and the signing of the medical consent forms. 2. Oocyte donor given opportunity to volunteer to participate in the study. Oocyte donor given an IRB approved informed consent document and HIPAA authorization for Oocyte Donation with Elagolix for Ovulation Suppression Protocol. 3. Oocyte donor begins oral contraceptives to lead into ovarian stimulation. 4. Oocyte donor discontinues oral contraceptives after 10 to 14 days of administration. 5. 3 days after discontinuing oral contraceptives, oocyte donor begins daily SQ injections of rFSH with the dose based upon age, follicle stimulating hormone (FSH), antimullerian hormone (AMH) and antral follicular count. 6. On day 4 of rFSH medications, the practitioner obtains an estradiol level from an oocyte donor. The rFSH dose will be adjusted as necessary. 7. At 2 to 3 days intervals of medications, the practitioner obtains an estradiol level and performs a transvaginal ultrasound for oocyte donor; an rFSH dose will be adjusted according to the results of the estradiol level and transvaginal ultrasound. 8. Once a 14 mm lead follicle is noted on the ultrasound, the practitioner administers 20 U per day of SQ hCG along with Elagolix 200 mg PO QD, taken at 10 pm. Elagolix is administered for a minimum of 1 day and a maximum of 6 days. 9. Administration of Elagolix 200 mg PO QD is discontinued 24 hours prior to the ovulatory, GnRH agonist trigger. 10. Ovarian stimulation is continued as outlined until oocyte maturity is reached based on follicular number, follicular size, cycle day and estradiol levels, at which time an ovulatory, GnRH agonist was used to induce ovulation and egg retrieval was performed per protocol. All mature eggs are either fertilized with the intended parent's sperm or cryopreserved for future used in egg donation.

[2] = oral administration; cited from earlier work
GnRH receptor [3] = target: T1, GnRH receptor; conditions: cited from earlier work

| Compound | premature ovulation (GnRH receptor [1]) | Avg. Peak Estradiol (GnRH receptor [1]) | Avg. Peak LH (GnRH receptor [1]) | Avg. Peak Progesterone (GnRH receptor [1]) | Days of Stimulation (GnRH receptor [1]) | Avg. Matures Oocytes (GnRH receptor [1]) | Avg. Oocytes (GnRH receptor [1]) | Avg. Cum GN Dose (GnRH receptor [1]) | estimated half-life (t1/2) [2] [h] | median time of maximum plasma concentration (Tmax) [2] [h] | LH levels (GnRH receptor [3]; 4 hours after administration of a single dose) | time for LH concentrations to rebound to about baseline levels or above (GnRH receptor [3]; after the last dose, all dose levels) [h] | anovulatory concentrations (GnRH receptor [3]; all participants at doses of 100 mg BID or higher, maintained throughout the 7-day study with daily dosing) | estradiol concentration at maximum suppression (GnRH receptor [3]; all participants at doses of 200 mg BID and higher) [pg/mL] | estradiol remaining partially suppressed (GnRH receptor [3]; at 24 hours, most groups) | safety profile (GnRH receptor [3]; doses up to 400 mg twice per day (BID)) | adverse events (GnRH receptor [3]; healthy premenopausal women) | tolerability (GnRH receptor [3]; healthy premenopausal women) | dose giving maximum inhibition of LH (GnRH receptor [3]; more sustained suppression at higher doses) [mg BID] |
| --- | --- | --- | --- | --- | --- | --- | --- | --- | --- | --- | --- | --- | --- | --- | --- | --- | --- | --- | --- |
| COc1cccc(-c2c(C)n(Cc3c(F)cccc3C(F)(F)F)c(=O)n(C[C@H](NCCCC(=O)[O-])c3ccccc3)c2=O)c1F.[Na+] [Elagolix, 4-((R)-2-[5-(2-fluoro-3-methoxy-phenyl)-3-(2-fluoro-6-trifluoromethyl-benzyl)-4-methyl-2,6-dioxo-3,6-dihydro-2H-pyrimidin-1-yl]-1-phenyl-ethylamino)-butyric acid sodium salt] | no instances of premature ovulation | 3959 | 0.94 | 1.9 | 10.49 | 24.73 | 30.31 | 2855 | 4 to 6 | 0.5 to 1 | 22-35 % baseline | 24 to 48 | Anovulatory concentrations were observed in all participants | ~11.8 | 42-65 % of baseline | acceptable safety profile | No clinically significant adverse events occurred | well tolerated | ≥ 200 |
| CCN=C(NCC)NCCCC[C@H](NC(=O)[C@H](CC(C)C)NC(=O)[C@@H](CCCCNC(=NCC)NCC)NC(=O)[C@H](Cc1ccc(O)cc1)NC(=O)[C@H](CO)NC(=O)[C@@H](Cc1cccnc1)NC(=O)[C@@H](Cc1ccc(Cl)cc1)NC(=O)[C@@H](Cc1ccc2ccccc2c1)NC(C)=O)C(=O)N1CCC[C@H]1C(=O)N[C@H](C)C(N)=O [Ganirelix] (Ac-[d2Nal][dPhe(4-Cl)][d3Pal]SY[d(hArg(Et2))]L[hArg(Et2)]P[dA]-NH2) | no instances of premature ovulation | 3764 | 1.3 | 2.3 | 10.06 | 25.42 | 30.55 | 2741 |  |  |  |  |  |  |  |  |  |  |  |
